Data taken from ChEMBL document CHEMBL4725402, “Discovery of thiapyran-pyrimidine derivatives as potential EGFR inhibitors” (Bioorg Med Chem, 2020).

How the values were obtained:
A549 = experiment: Antiproliferation activity against human A549 cells assessed as reduction in cell viability measured after 72 hrs by MTT assay; type: functional, cell-based; conditions: A549, 72 h
HeLa = experiment: Antiproliferation activity against human HeLa cells assessed as reduction in cell viability measured after 72 hrs by MTT assay; type: functional, cell-based
MCF7 = experiment: Antiproliferation activity against human MCF7 cells assessed as reduction in cell viability measured after 72 hrs by MTT assay; type: functional, cell-based; conditions: MCF7, 72 h
L02 = experiment: Cytotoxicity against human L02 cells assessed as reduction in cell viability measured after 72 hrs by MTT assay; type: cell-based; conditions: L02, 72 h
[1] = Selectivity index, ratio of IC50 for human L02 cells to IC50 for human A549 cells assessed as reduction in cell viability measured after 72 hrs by MTT assay; type: toxicity; conditions: L02 cells versus A549 cells, read-out: Ratio IC50
NCI-H1975 = experiment: Antiproliferation activity against human NCI-H1975 cells harboring EGFR T790M/L858R mutation assessed as reduction in cell viability measured after 72 hrs by MTT assay; type: functional, cell-based; conditions: NCI-H1975, 72 h
[2] = target: Epidermal growth factor receptor (Homo sapiens, UniProt P00533); experiment: Inhibition of wild type EGFR (unknown origin) using FAM-labelled peptide as substrate incubated for 10 mins in presence of ATP by Kinase Glo luminescence assay
[3] = target: Epidermal growth factor receptor (Homo sapiens, UniProt P00533, T790M); experiment: Inhibition of EGFR T790M mutant (unknown origin) using FAM-labelled peptide as substrate incubated for 10 mins fin presence of ATP by Kinase Glo luminescence assay
Homo sapiens = species: Homo sapiens; experiment: Inhibition of PI3K (unknown origin) at 1 uM relative to control
[4] = target: Hepatocyte growth factor receptor (Homo sapiens) (UniProt P08581); experiment: Inhibition of C-MET (unknown origin) at 1 uM relative to control
[5] = target: Vascular endothelial growth factor receptor 2 (Homo sapiens) (UniProt P35968); experiment: Inhibition of KDR (unknown origin) at 1 uM relative to control
[6] = target: Epidermal growth factor receptor (Homo sapiens, UniProt P00533, L858R/T790M); experiment: Inhibition of EGFR T790M/L858R mutant (unknown origin) using FAM-labelled peptide as substrate incubated for 10 mins in presence of ATP by Kinase Glo luminescence assay
[7] = target: Serine/threonine-protein kinase mTOR (Homo sapiens) (UniProt P42345); experiment: Inhibition of mTOR (unknown origin) at 1 uM relative to control

Chain of Epidermal growth factor receptor (Homo sapiens, UniProt P00533) (P00533 whole entry): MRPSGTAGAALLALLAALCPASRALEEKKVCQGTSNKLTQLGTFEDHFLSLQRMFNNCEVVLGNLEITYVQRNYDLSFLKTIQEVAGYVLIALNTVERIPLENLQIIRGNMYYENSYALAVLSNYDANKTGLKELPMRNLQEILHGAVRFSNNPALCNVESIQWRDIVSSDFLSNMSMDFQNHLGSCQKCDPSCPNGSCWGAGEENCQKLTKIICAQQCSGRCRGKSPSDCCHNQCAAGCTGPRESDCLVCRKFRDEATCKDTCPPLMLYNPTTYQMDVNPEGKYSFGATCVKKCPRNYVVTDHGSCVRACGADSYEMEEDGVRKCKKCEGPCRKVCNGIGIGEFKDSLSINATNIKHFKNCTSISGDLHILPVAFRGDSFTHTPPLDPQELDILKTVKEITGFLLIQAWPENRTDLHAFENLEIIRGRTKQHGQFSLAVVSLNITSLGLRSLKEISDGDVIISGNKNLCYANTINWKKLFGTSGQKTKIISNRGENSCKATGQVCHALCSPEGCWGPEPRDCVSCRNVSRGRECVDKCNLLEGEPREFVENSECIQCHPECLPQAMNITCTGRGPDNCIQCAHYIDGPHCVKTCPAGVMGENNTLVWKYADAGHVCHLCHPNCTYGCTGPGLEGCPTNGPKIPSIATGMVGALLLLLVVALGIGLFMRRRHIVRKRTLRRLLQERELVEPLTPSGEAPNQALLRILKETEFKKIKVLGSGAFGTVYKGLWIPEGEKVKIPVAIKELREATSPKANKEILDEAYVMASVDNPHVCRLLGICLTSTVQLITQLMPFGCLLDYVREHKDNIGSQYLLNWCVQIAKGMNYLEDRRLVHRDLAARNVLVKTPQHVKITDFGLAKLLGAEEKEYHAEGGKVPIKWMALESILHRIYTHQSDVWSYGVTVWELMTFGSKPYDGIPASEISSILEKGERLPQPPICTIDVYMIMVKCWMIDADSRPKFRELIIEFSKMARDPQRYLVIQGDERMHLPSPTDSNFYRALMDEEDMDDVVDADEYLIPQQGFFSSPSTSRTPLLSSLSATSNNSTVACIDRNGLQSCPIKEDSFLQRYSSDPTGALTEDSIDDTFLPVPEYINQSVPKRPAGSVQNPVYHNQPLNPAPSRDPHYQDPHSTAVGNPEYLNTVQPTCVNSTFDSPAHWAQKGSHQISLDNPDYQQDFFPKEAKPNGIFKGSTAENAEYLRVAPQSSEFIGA
Chain of Epidermal growth factor receptor (Homo sapiens, UniProt P00533, T790M) (P00533 25-1210 T790M limits assumed): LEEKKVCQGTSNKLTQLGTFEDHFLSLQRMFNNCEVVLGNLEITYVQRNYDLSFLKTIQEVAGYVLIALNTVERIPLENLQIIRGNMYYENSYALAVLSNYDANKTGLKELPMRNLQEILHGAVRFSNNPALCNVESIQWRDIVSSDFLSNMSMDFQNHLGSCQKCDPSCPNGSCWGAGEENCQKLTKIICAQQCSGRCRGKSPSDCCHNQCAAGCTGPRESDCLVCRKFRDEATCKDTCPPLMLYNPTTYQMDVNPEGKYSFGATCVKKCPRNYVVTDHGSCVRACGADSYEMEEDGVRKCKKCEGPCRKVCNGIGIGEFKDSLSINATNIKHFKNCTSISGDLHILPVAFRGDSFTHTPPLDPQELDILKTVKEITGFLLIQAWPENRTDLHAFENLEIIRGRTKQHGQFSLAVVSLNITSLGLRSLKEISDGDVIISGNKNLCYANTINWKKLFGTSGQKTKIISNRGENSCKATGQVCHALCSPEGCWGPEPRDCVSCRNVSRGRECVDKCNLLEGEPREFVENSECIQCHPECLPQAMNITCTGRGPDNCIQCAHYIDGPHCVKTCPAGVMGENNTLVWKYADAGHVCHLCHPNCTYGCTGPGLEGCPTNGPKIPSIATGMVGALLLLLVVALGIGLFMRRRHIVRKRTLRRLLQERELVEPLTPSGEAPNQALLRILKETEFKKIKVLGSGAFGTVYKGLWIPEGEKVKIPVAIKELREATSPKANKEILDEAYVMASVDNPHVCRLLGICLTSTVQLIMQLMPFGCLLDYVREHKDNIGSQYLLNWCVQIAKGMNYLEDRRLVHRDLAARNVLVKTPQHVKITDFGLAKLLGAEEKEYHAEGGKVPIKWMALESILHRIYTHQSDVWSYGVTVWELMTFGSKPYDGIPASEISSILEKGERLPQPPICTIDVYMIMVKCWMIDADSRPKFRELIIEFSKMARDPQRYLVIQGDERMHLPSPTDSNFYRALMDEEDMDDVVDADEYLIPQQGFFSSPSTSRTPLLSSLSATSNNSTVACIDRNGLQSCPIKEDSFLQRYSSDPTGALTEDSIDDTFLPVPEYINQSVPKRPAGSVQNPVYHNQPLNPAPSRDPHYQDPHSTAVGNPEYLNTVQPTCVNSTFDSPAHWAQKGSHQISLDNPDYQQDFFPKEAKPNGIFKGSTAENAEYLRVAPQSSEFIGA
Chain of Vascular endothelial growth factor receptor 2 (Homo sapiens) (P35968 whole entry): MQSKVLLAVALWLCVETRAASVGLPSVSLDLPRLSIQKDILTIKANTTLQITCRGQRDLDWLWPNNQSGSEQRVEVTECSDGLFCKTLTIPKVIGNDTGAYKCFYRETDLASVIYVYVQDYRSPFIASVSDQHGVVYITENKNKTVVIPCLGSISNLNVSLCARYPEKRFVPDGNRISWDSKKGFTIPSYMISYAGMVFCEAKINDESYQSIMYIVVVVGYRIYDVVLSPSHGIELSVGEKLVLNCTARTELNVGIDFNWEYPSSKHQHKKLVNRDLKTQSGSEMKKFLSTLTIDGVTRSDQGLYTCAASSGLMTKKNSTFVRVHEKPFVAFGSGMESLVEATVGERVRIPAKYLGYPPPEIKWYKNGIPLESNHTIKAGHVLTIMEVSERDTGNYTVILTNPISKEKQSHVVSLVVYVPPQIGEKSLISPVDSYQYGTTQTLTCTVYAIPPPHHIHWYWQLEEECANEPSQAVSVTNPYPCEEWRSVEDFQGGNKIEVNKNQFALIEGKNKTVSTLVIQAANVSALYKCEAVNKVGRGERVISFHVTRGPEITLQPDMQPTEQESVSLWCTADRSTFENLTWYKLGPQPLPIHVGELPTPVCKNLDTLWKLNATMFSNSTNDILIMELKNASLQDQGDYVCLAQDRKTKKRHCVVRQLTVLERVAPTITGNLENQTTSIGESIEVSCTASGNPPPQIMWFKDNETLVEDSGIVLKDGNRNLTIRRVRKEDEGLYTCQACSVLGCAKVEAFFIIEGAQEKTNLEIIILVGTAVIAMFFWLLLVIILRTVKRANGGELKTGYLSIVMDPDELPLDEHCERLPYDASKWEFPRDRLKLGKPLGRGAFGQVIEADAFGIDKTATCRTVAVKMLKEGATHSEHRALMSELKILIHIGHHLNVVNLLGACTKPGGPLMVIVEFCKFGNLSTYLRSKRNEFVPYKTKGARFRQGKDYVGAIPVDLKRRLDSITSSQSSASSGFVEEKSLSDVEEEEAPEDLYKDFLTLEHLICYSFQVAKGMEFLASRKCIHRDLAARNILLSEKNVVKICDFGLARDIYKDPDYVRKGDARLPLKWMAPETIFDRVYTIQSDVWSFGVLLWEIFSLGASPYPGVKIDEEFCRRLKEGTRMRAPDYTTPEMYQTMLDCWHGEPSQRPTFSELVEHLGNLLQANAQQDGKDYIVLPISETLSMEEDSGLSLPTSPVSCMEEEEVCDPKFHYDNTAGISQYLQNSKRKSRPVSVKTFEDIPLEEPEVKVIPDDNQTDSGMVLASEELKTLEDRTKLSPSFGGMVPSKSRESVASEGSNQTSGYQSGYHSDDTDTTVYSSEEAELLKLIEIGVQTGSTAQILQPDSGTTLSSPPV
Chain of Hepatocyte growth factor receptor (Homo sapiens) (P08581 whole entry): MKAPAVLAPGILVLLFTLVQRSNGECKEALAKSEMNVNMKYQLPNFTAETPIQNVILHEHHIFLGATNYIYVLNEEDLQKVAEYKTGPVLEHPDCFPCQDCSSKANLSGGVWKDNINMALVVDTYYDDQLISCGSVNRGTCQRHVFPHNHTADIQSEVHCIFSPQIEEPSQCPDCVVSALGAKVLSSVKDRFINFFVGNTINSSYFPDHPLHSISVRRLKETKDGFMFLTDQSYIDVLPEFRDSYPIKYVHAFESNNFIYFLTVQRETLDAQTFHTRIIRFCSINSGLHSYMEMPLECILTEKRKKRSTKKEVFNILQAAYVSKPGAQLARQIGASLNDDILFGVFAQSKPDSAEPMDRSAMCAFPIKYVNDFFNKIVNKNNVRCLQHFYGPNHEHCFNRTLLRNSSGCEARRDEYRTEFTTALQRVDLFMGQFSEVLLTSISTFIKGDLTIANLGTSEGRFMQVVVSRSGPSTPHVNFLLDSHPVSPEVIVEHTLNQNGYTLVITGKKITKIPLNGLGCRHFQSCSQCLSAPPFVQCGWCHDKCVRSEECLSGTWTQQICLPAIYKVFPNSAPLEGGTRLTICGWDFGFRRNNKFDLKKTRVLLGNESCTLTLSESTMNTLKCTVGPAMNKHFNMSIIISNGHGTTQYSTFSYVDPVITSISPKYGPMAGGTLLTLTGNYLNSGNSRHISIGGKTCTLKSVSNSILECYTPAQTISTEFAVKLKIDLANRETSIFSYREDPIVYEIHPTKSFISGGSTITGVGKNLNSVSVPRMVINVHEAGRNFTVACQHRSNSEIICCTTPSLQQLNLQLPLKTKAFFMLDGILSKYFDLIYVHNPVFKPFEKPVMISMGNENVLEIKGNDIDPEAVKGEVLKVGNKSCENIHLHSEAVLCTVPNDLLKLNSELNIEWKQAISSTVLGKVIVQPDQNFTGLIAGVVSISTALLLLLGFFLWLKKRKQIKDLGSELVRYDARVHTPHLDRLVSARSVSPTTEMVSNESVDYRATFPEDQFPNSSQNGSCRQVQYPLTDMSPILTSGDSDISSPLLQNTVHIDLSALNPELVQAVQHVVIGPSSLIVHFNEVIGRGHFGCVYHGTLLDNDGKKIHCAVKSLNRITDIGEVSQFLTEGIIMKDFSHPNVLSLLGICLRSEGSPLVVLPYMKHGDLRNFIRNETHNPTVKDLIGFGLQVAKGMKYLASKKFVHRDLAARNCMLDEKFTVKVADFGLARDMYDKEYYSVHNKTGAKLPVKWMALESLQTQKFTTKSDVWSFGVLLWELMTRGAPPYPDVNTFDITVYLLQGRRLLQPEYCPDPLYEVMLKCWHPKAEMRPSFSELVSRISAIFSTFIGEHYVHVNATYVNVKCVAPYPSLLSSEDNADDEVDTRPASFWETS

Structure (SMILES)	IC50 (A549) [µM]	IC50 (HeLa) [µM]	IC50 (MCF7) [µM]	IC50 (NCI-H1975) [µM]	IC50 [2] [µM]	IC50 [3] [µM]	inhibition (Homo sapiens) [%]	inhibition [4] [%]	inhibition [5] [%]	IC50 [6] [µM]	inhibition [7] [%]	IC50 (L02) [µM]	selectivity ratio at 72 h [1]
COc1ccc(Nc2nc3c(c(Oc4cccc(NC(=O)C=C(C)C)c4)n2)CSCC3)cc1	26.9	19.1	> 50									> 50	> 1.86
CC(C)/C=C/C(=O)Nc1cccc(Oc2nc(Nc3ccn(C)n3)nc3c2CSCC3)c1	33.5	40.1	> 50									> 50	> 1.49
CC(C)=CC(=O)Nc1cccc(Oc2nc(Nc3cccc(C#N)c3)nc3c2CSCC3)c1	36.9	29.2	> 50									> 50	> 1.36
CC/C=C/C(=O)Nc1cccc(Oc2nc(Nc3ccn(C)n3)nc3c2CSCC3)c1	36.8	> 50	> 50									> 50	> 1.36
CC(C)=CC(=O)Nc1cccc(Oc2nc(Nc3ccn(C)n3)nc3c2CSCC3)c1	44.2	> 50	> 50									> 50	> 1.13
C/C=C/C(=O)Nc1cccc(Oc2nc(Nc3ccn(C)n3)nc3c2CSCC3)c1	> 50	> 50	40	35.9								> 50	
C=C(F)C(=O)Nc1cccc(Oc2nc(Nc3cccc(OC)c3)nc3c2CSCC3)c1	29.6	44.8	> 50	26.1								41.2	1.39
Oc1cccc(-c2nc(N3CCOCC3)c3oc4ncccc4c3n2)c1							99.8		2.4				
COc1ccc(Nc2nc3c(c(Oc4cccc(NC(=O)/C=C/C(C)C)c4)n2)CSCC3)cn1	24.2	27.8	37.1									> 50	> 2.06
COc1cccc(Nc2nc3c(c(Oc4cccc(NC(=O)/C=C/C(C)C)c4)n2)CSCC3)c1	25.3	> 50	21.8	25.1								> 50	> 1.98
C=C(C)C(=O)Nc1cccc(Oc2nc(Nc3ccn(C)n3)nc3c2CSCC3)c1	46.9	> 50	> 50									> 50	> 1.06
CC(C)/C=C/C(=O)Nc1cccc(Oc2nc(Nc3cccc(C#N)c3)nc3c2CSCC3)c1	35.9	22.8	29.6									> 50	> 1.39
COc1ccc(Nc2nc3c(c(Oc4cccc(NC(=O)/C=C/C(C)C)c4)n2)CSCC3)cc1	25.9	22.9	> 50									> 50	> 1.93
C=C(F)C(=O)Nc1cccc(Oc2nc(Nc3ccn(C)n3)nc3c2CSCC3)c1	> 50	> 50	> 50	36.3								47.8	< 0.96

Continued by falling IC50 (A549), values first:

IC50 (A549) [µM]	IC50 (HeLa) [µM]	IC50 (MCF7) [µM]	IC50 (NCI-H1975) [µM]	IC50 [2] [µM]	IC50 [3] [µM]	inhibition (Homo sapiens) [%]	inhibition [4] [%]	inhibition [5] [%]	IC50 [6] [µM]	inhibition [7] [%]	Structure (SMILES)	IC50 (L02) [µM]	selectivity ratio at 72 h [1]
22.2	> 50	24.3									C/C=C/C(=O)Nc1cccc(Oc2nc(Nc3ccc(OC)cc3)nc3c2CSCC3)c1	> 50	> 2.25
21.1	13.8	23.4	12.5								C/C=C/C(=O)Nc1cccc(Oc2nc(Nc3cccc(OC)c3)nc3c2CSCC3)c1	> 50	> 2.37
20.1	27.2	31.4	17.2								CC/C=C/C(=O)Nc1cccc(Oc2nc(Nc3ccc(OC)cc3)nc3c2CSCC3)c1	> 50	> 2.49
19.8	19.1	> 50	21.9								COc1cccc(Nc2nc3c(c(Oc4cccc(NC(=O)C=C(C)C)c4)n2)CSCC3)c1	> 50	> 2.52
18.6	25.8	> 50									C=CC(=O)Nc1cccc(Oc2nc(Nc3ccn(C)n3)nc3c2CSCC3)c1	> 50	> 2.7
17.2	27.2	24.2	10.8								CC/C=C/C(=O)Nc1cccc(Oc2nc(Nc3cccc(OC)c3)nc3c2CSCC3)c1	> 50	> 2.9
17.2	12.8	21.4	28.1								C/C=C/C(=O)Nc1cccc(Oc2nc(Nc3cccc(C#N)c3)nc3c2CSCC3)c1	> 50	> 2.91
16.8	29.2	22.2									COc1ccc(Nc2nc3c(c(Oc4cccc(NC(=O)C=C(C)C)c4)n2)CSCC3)cn1	> 50	> 2.97
14.6	26.2	17.2	13.9								C=CC(=O)Nc1cccc(Oc2nc(Nc3ccc(OC)nc3)nc3c2CSCC3)c1	> 50	> 3.43
13.1	31.2	31.5	13.2								CC/C=C/C(=O)Nc1cccc(Oc2nc(Nc3ccc(OC)nc3)nc3c2CSCC3)c1	> 50	> 3.81
11.9	12.8	> 50	18.9								CCC/C=C/C(=O)Nc1cccc(Oc2nc(Nc3ccc(OC)cc3)nc3c2CSCC3)c1	> 50	> 4.21
11.8	33.8	32	11.9								CCC/C=C/C(=O)Nc1cccc(Oc2nc(Nc3cccc(OC)c3)nc3c2CSCC3)c1	> 50	> 4.23
10.8	15.3	26.8	17.9								CCC/C=C/C(=O)Nc1cccc(Oc2nc(Nc3ccc(OC)nc3)nc3c2CSCC3)c1	> 50	> 4.62
10.1	31.8	15.8	17.2								CC/C=C/C(=O)Nc1cccc(Oc2nc(Nc3cccc(C#N)c3)nc3c2CSCC3)c1	> 50	> 4.95
10.1	28.9	> 50	9.64								C=CC(=O)Nc1cccc(Oc2nc(Nc3cccc(OC)c3)nc3c2CSCC3)c1	48.9	
8.19	17	22.6	13.6	> 1	> 1						CCC/C=C/C(=O)Nc1cccc(Oc2nc(Nc3ccn(C)n3)nc3c2CSCC3)c1	> 50	> 6.1
8.04	16.5	21.1	13.9	> 1	> 1						C/C=C/C(=O)Nc1cccc(Oc2nc(Nc3ccc(OC)nc3)nc3c2CSCC3)c1	> 50	> 6.22
6.86	34.9	21.7	4.59	> 1	> 1	44.3	2.4	-0.9	> 1		C=CC(=O)Nc1cccc(Oc2nc(Nc3cccc(C#N)c3)nc3c2CSCC3)c1	> 50	> 7.29
5.79	7.22	15.3	10.8	> 1	> 1	62.2	3.6		> 1	10	CCC/C=C/C(=O)Nc1cccc(Oc2nc(Nc3cccc(C#N)c3)nc3c2CSCC3)c1	> 50	> 8.64
